According to patent US20230088704A1, “A PHARMACEUTICAL COMBINATION FOR THE TREATMENT OF A CANCER” (ABILITY PHARMACEUTICALS S.L., priority 2020, published 2023):
Read-outs that look alike come from different tables or passages of the source.

Key:
OPM2 cells = test: Cell viability (MTT) and combination index, ABTL0812 with bortezomib; type: cell-based; conditions: ABTL0812 5 μM, Bortezomib 1 nM, alone or combined; 48h
Protocol: (§1) Methods: JJN-3 and OPM2 cells were seeded in 24-well plates and treated with ABTL0812 (5 μM), bortezomib (0.5 and 1 nM respectively) or a combination of both drugs and left in the incubator for 48h (0.5% FBS). Cell viability was studied by the MTT assay and combination index was determined to evaluate a possible synergism.
(§2) Cell viability was evaluated in all cases by MTT assay and the Combination Index (CI), to evaluate synergism, was calculated according to the method of Chou and Talalay (Chou 2006; Chou 2010), as follows: CI=(D)1/(Dx)1+(D)2/(Dx)2, where CI<1, =1, and >1 indicate synergism, additive effect, and antagonism, respectively. In the denominator, (Dx)1 is for D1 “alone” that inhibits a system x %, and (Dx)2 is for D2 “alone” that inhibits a system x %.

JJN-3 cells = test: as above; type: cell-based; conditions: ABTL0812 5 μM, Bortezomib 0.5 nM, alone or combined; 48h
Protocol: as §1, §2

Ishikawa cells [1] = type: in vivo; conditions: ABTL0812 oral 120 mg/kg/day; Doxorubicin 5 mg/kg i.p. once a week
Protocol: Methods: Mice were injected with 4×10^6 Ishikawa cells in one flank to induce tumor formation. […] ABTL0812 was administered by the oral route at 120 mg/kg/day. Doxorubicin 5 mg/kg was administered intra-peritoneally once a week. Tumor volume and body weight were monitored 3 times a week.

Ishikawa cells [2] = test: Human endometrial cancer xenograft, ABTL0812 with olaparib; type: in vivo; conditions: ABTL0812 oral 120 mg/kg/day; Olaparib oral 50 mg/kg/day
Protocol: Methods: Mice were injected with 4×10^6 Ishikawa cells in one flank to induce tumor formation. […] Olaparib was administered by the oral route 50 mg/kg/day. Tumor volume and body weight were monitored 3 times a week.

PDL1 = PDL1 expression in cancer cells by flow cytometry (Example 6.2); type: cell-based, human; conditions: Panc-1 cells; ABTL0812 50 μM, IFNγ 2.5 ng/ml or both
Protocol: Methods: Human cancer cell lines were incubated with 100 μM of ABTL0812 during 48 hours and collected for staining with anti-PDL1 antibody labeled with a fluorophore. After staining of cells with anti-PDL1 antibody, cells were run on Flow Cytometry (Facs Canto) to analyzed PDL1 levels in cancer cells. Additionally, we incubated Panc-1 cells with ABTL0812 (50 μM), IFNγ (2.5 ng/ml), a master regulator of PDL1 expression or a combination with both. Then, cells were collected, stained with anti-PDL1 antibody and analyzed by Flow Cytometry for the expression of PDL1.

Ishikawa cells [3] = test: Human endometrial cancer xenograft, ABTL0812 with bevacizumab; type: in vivo; conditions: ABTL0812 oral 120 mg/kg/day; Bevacizumab ip 100 μg/dose every four days
Protocol: Methods: Mice were injected with 4×10^6 Ishikawa cells in one flank to induce tumor formation. […] Bevacizumab was administered ip at 100 μg/dose, every four days up to four administration. Tumor volume and body weight were monitored 3 times a week.

With `CC(C)C[C@H](NC(=O)[C@H](Cc1ccccc1)NC(=O)c1cnccn1)B(O)O` [Bortezomib, reference compound] the cell death (OPM2 cells) was “around 10%” and the cell death (JJN-3 cells) was about 15%.

`COc1cccc2c1C(=O)c1c(O)c3c(c(O)c1C2=O)C[C@@](O)(C(=O)CO)C[C@@H]3O[C@H]1C[C@H](N)[C@H](O)[C@H](C)O1` [doxorubicin, reference compound] was tested, and the tumor volume (Ishikawa cells [1]) was “significantly reduced tumor volume”.

For `O=C(c1cc(Cc2n[nH]c(=O)c3ccccc23)ccc1F)N1CCN(C(=O)C2CC2)CC1` [olaparib, reference compound], the tumor volume (Ishikawa cells [2]) was “significantly reduced tumor volume”.

For “IFNγ: well described master regulator of PDL1 expression [reference compound]”, the PDL1 levels (PDL1) was “significantly higher levels of PDL1 compared with ABTL0812”.

In the case of bevacizumab [reference compound], the tumor volume (Ishikawa cells [3]) is reported as “significantly reduced tumor volume”.
